Data taken from paper PMC6853638, “TMC1 is an essential component of a leak channel that modulates tonotopy and excitability of auditory hair cells in mice” (eLife, 2019).
Where a chain is given by its changes, count along the chain named. Where “and” joins values, the source holds several entries; their conditions need not be identical. Equal values may be shown once.

Experiments:
[1] = target: T1, cysteine-substituted TMC1 constructs (Mus musculus, UniProt Q8R4P5, M412C); assay: Background current before and after MTSET treatment in Tmc1-knockout OHCs expressing cysteine-substituted TMC1; type: cell-based; details: Tmc1-knockout OHCs expressing TMC1-M412C, individual cells
T1 construct: control full-length TMC1 (TMC1_WT); expressed in transfected cells; host or cells: Tmc1-knockout mouse OHCs, injectoporation
T1 sequence (Q8R4P5 1-757 M412C): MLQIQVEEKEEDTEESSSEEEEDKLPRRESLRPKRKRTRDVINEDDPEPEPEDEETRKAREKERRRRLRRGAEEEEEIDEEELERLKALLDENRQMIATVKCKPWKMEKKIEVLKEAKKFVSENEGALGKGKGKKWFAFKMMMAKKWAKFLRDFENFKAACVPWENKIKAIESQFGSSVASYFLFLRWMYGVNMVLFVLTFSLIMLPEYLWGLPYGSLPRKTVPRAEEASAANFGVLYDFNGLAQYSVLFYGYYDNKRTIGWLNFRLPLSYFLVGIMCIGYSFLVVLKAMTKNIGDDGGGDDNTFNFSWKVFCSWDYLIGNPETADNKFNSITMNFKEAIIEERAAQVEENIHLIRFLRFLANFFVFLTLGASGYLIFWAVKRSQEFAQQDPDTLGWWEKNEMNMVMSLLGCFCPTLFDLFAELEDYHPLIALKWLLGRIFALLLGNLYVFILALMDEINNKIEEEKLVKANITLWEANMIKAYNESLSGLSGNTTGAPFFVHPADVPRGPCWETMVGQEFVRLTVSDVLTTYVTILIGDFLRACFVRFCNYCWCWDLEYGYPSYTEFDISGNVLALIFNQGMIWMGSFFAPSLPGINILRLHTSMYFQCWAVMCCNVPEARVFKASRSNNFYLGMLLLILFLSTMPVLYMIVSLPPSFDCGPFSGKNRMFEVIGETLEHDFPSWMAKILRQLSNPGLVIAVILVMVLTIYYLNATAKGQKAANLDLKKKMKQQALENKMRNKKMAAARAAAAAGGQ
Description: (§1) Mouse Tmc1 and Tmc2 cDNAs were cloned into CMV-Script and pCDNA3.1- vectors, respectively. To obtain the Tmc1-deafness vector and amino-acid-substituted Tmc1 constructs, specific primers were designed and used for PCR (Supplementary File 1). […] In brief, the organ of Corti was isolated from P3 mice and cut into three pieces in Dulbecco’s modified Eagle’s medium/F12 with 1.5 μg/ml ampicillin. For electroporation, a glass pipette (2 μm tip diameter) was used to deliver cDNA plasmids (0.2 μg/μl in 1 × Hanks' balanced salt solution) to hair cells in the sensory epithelium. EGFP was used as an indicator for the selection of transfected hair cells. A series of three pulses at 60 V lasting 15 ms at 1 s intervals was applied to cochlear tissues by an electroporator (ECM Gemini X2, BTX, CA). The cochlear tissues were cultured for 1 day in vitro and then used for electrophysiological recording.
(§2) All experiments were performed at room temperature (20–25°C). Briefly, the basilar membrane with hair cells was acutely dissected from neonatal mice. […] The acutely isolated or cultured basilar membrane was used for electrophysiological recording within 1 h. […] Hair cells were recorded with a patch-clamp amplifier (EPC 10 USB and Patchmaster software, HEKA Elektronik, Lambrecht/Pfalz, Germany).
(§3) The sampling rate was 1 kHz for leak current recording, 50 kHz for the IV protocol and current-clamp recording, and 100 kHz for unitary channel recording. The voltage-clamp used a –70 mV holding potential, and the current-clamp was held at 0 pA. Only recordings with a current baseline <20 pA in NMDG solution were used for statistical analysis.

[2] = target: T2, cysteine-substituted TMC1 constructs (Mus musculus, UniProt Q8R4P5, N447C); assay: as above; type: cell-based; details: Tmc1-knockout OHCs expressing TMC1-N447C, individual cells
T2 construct: control full-length TMC1 (TMC1_WT); expressed in transfected cells; host or cells: Tmc1-knockout mouse OHCs, injectoporation
T2 sequence (Q8R4P5 1-757 N447C): T1 sequence (Q8R4P5 1-757 M412C) with C412M, N447C
Description: as §1, §2, §3

TMC1-M412C = target: T3, TMC1-M412C (Mus musculus, UniProt Q8R4P5, M412C); parameters: method as in Pan et al., 2018; details: MTSET treatment of M412C; ref Pan et al., 2018; cited from earlier work
T3 construct: control full-length TMC1 (TMC1_WT); expressed in transfected cells; host or cells: Tmc1;Tmc2 double-knockout mouse OHCs (P1 + 3 DIV), injectoporation
T3 sequence (Q4KL25 whole entry partner, one chain of several): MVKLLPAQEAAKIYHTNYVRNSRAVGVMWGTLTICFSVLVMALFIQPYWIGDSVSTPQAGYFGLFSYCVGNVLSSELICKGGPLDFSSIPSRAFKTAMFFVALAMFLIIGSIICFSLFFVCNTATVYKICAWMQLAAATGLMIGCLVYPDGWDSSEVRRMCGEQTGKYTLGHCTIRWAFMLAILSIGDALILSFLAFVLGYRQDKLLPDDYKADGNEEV
T3 sequence (Q8K467 29-153 partner, one chain of several): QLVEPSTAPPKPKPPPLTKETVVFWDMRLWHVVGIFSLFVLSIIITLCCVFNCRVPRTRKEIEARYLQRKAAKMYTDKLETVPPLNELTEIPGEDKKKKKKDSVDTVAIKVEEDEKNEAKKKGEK
T3 sequence (Q9Z309 whole entry partner, one chain of several): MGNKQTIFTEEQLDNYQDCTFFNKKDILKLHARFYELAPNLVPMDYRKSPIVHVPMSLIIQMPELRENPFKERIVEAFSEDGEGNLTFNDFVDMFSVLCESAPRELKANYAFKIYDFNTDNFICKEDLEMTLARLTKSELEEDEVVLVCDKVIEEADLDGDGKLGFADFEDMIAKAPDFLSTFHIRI

Q: With C[N+](C)(C)CCSS(C)(=O)=O.[Br-] [MTSET, 2-(trimethylammonium)ethyl methanethiosulfonate, bromide] as the molecule, how does the “amplitude of the background current after MTSET treatment” value [1] read?
A: -35.9532 and -37.439 and -48.1972 and -25.6217 and -14.3767 and -67.9843

Q: What about the “amplitude of the background current after MTSET treatment” value [2] of the same molecule?
A: -12.9811 and -13.0886 and -13.798 and -25.7685 and -27.4817 and -21.0828

Q: And the “effect on the MET current” value (TMC1-M412C)?
A: reduced the MET current
